Experimental data as given in PubChem BioAssay (NCI).
“And” between values parts separate entries of the source, which are not always exact repeats. Identical values can stand only once.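 Growth conditions: 96-well plates. Treatment: test compound, 48 hours, 5 concentrations. Analysis: linear interpolation between bracketing concentrations; unreached endpoints set to highest concentration. The concentration for 50% growth inhibition is given as GI50. The concentration for full growth arrest is given as TGI.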

Assays:
Experiment in all cases: NCI anticancer screen, dose series, 48 h
HOP-92 NSCLC = test system: HOP-92 NSCLC
A549 NSCLC = test system: A549 NSCLC
RPMI-8226 leukemia = test system: RPMI-8226 leukemia
HCT-116 colon = test system: HCT-116 colon
RXF 393 renal = test system: RXF 393 renal
MALME-3M melanoma = test system: MALME-3M melanoma
SK-OV-3 ovarian = test system: SK-OV-3 ovarian
U251 CNS = test system: U251 CNS
MDA-MB-435 = test system: MDA-MB-435
SK-MEL-2 melanoma = test system: SK-MEL-2 melanoma

SMILES	TGI (HOP-92 NSCLC)	TGI (A549 NSCLC)	TGI (RPMI-8226 leukemia)	TGI (HCT-116 colon)	TGI (RXF 393 renal)	TGI (MALME-3M melanoma)	TGI (SK-OV-3 ovarian)	TGI (U251 CNS)	TGI (MDA-MB-435)	TGI (SK-MEL-2 melanoma)	GI50 (RPMI-8226 leukemia)	GI50 (HCT-116 colon)
COC(=O)c1c2c(cc3c1CC1(Cc4cc5c(cc4C1)CCCC5)C3)CCCC2	> 100 µM	> 100 µM	> 100 µM	28.6 µM	67.3 µM	> 100 µM	> 100 µM	> 100 µM	> 100 µM	> 100 µM	–	–
CC[P+](c1ccccc1)(N(C)C)N(C)C	> 100 µM	> 100 µM	> 100 µM	> 100 µM	> 100 µM	> 100 µM	> 100 µM	> 100 µM	> 100 µM	> 100 µM	–	–
NCC1OC(OC2C(N)CC(N)C(O)C2OC2OC(CO)C(O)C2O)C(N)C(O)C1O (configuration not stated)	> 100 µM	> 100 µM	> 100 µM	> 100 µM	> 50 µM	> 100 µM	> 100 µM	> 100 µM	> 100 µM	> 100 µM	48 µM and > 100 µM	> 100 µM
C=C(CCC(=O)N(CCc1c[nH]c2ccccc12)C(=O)c1ccccc1CSCC)C(=O)OC	> 100 µM	> 100 µM	> 100 µM	> 100 µM	> 100 µM	> 100 µM	> 100 µM	> 100 µM	> 100 µM	> 100 µM	–	–
Clc1ccc(-c2nn3c(COc4ccc(OCc5nnc6sc(-c7ccc(Cl)cc7)nn56)c(Cl)c4)nnc3s2)cc1	37.8 µM	90.2 µM	> 100 µM	> 100 µM	44.1 µM	> 100 µM	> 100 µM	54.7 µM	> 100 µM	> 100 µM	–	–
CC1CC[C@@]2(OC1)OC1C[C@H]3[C@@H]4CC=C5C[C@@H](OC6OC(CO)C(OC7OC(CO)C(O)C(O)C7O)C(O)C6OC6OC(C)C(O)C(O)C6O)CC[C@]5(C)[C@H]4CC[C@]3(C)C1[C@@H]2C (some centres not stated)	2.12 µM	2.15 µM	1.33 µM	2.31 µM	0.857 µM	1.33 µM	6.96 µM	0.923 µM	1.29 µM	3.2 µM	–	–
Cc1c(-c2ccccc2)oc(=O)c2ccccc12	38 µM	> 100 µM	36.5 µM	56.4 µM	37.7 µM	52.8 µM	54.4 µM	42.2 µM	34.6 µM	38.5 µM	–	–
CC(C)(C)OC(=O)N1CCC2(CC1)C(=O)NCN2c1ccccc1	> 100 µM	> 100 µM	> 100 µM	> 100 µM	> 100 µM	> 100 µM	> 100 µM	> 100 µM	> 100 µM	> 100 µM	–	–
CCOC1OC(C)(C=C(C#N)C#N)CCC1C (configuration not stated)	> 100 µM	> 100 µM	70.6 µM	> 100 µM	> 91.7 µM	> 100 µM	> 100 µM	> 100 µM	> 100 µM	> 100 µM	–	–
CSC1=C(C)C(/C=N/Nc2ccc([N+](=O)[O-])cc2)=C(C)N(c2ccccc2)S1(=O)=O	> 100 µM	> 100 µM	> 100 µM	> 100 µM	> 100 µM	> 100 µM	> 100 µM	> 100 µM	> 100 µM	> 100 µM	–	–
Cc1c(C)c2c(c(N)c1C#N)C(=O)N(NC(=S)Nc1ccccc1)C2=O	> 100 µM	> 100 µM	> 100 µM	> 100 µM	> 100 µM	> 100 µM	> 100 µM	> 100 µM	> 100 µM	> 100 µM	–	–
Cc1cc(C)nc(NS(=O)(=O)c2ccc(NC(=O)c3ccc4nc5ccccc5c(Nc5ccc(S(=O)(=O)N=C(N)N)cc5)c4c3)cc2)n1	> 100 µM	> 100 µM	> 100 µM	> 100 µM	> 100 µM	> 100 µM	> 100 µM	> 100 µM	> 100 µM	> 100 µM	–	–
COc1cc2ccc(C(C)NCC#N)cc2cc1OC (configuration not stated)	> 100 µM	> 100 µM	> 100 µM	> 100 µM	> 100 µM	> 100 µM	> 100 µM	> 100 µM	> 100 µM	> 100 µM	–	–
COc1cc(-c2cc(OC)c(OC)c3ccc(Br)cc23)c2cc(Br)ccc2c1OC	40.3 µM	45.2 µM	51.7 µM	24.9 µM	41 µM	52.9 µM	71.8 µM	37.7 µM	46.1 µM	56 µM	–	–
